What was measured:
[1] = tested on: CR pool, CR #1, and CR #3 cell lines; experiment: Cell proliferation after adding mevalonate pathway byproducts to cerivastatin-treated cells; type: cell-based; details: CR #1, CR #3, byproduct added after cerivastatin treatment
Text: A statin-based drug is a suppressor of HMG-CoA reductase which is an enzyme converting 3-hydroxy-3-methylglutaryl coenzyme A (HMG-CoA) into mevalonic acid in the mevalonate pathway, and is known as a cholesterol-lowering agent, but is known to affect various intracellular signaling processes by suppressing the production of isoprenoids (Farnesyl pyrophosphate; […] GGPP) acting as a substrate for isoprenylation of a target protein among final byproducts of the mevalonate pathway in addition to cholesterol. Thus, after the present research team treated H3122 parental, CR pool, CR #1, and CR #3 cell lines with cerivastatin in order to see which one of the byproducts mediated by the mevalonate pathway is involved in acquiring resistance to an ALK inhibitor, the proliferation of cells was identified after mevalonate, GGPP, FPP, and squalene, which are byproducts of each step, were each added. The results are illustrated in FIG. 6A.

YAP = experiment: Western blot of YAP phosphorylation, crizotinib-resistant cell line; type: cell-based
Text: YAP is accumulated in the nucleus to form a complex with TEAD when phosphorylation is suppressed, and is known as an oncogene which promotes the excessive proliferation of cancer cells and the metastasis of cancer by inducing the expression of a gene associated with cancer. In addition, YAP as a transcription factor has been reported to be involved even in the expression of EGFR and an EGFR ligand. Recently, it has been reported that the mevalonate pathway which is an important mechanism in cancer cell metabolism regulates YAP activity, and particularly, geranylgeranylation may directly affect YAP activity. […] The results are illustrated in FIG. 7. FIGS. 7A and 7B identify the expression pattern of YAP when GGPP and […] are treated, respectively through a western blot, and FIG. 7C illustrates whether YAP moves into the nucleus through an immunocytochemistry analysis.

[2] = tested on: p21, cleaved PARP, and cleaved caspase 3; experiment: Western blot of p21 and apoptosis-related proteins, crizotinib-resistant cell lines; type: cell-based
[3] = tested on: p21, cleaved caspase 3, PARP, YAP; experiment: Western blot of p21, cleaved caspase 3, PARP and YAP, ceritinib-resistant cell line; type: cell-based; details: cell line resistant to ceritinib
[4] = tested on: cell line resistant to the ALK inhibitor; experiment: Evaluation of antitumor efficacy of statin-based drugs; details: cell line resistant to the ALK inhibitor versus parental
Text: The results are illustrated in FIG. 4A.

AKT and ERK = experiment: Immunoblot of lower and bypass signaling pathway of ALK, ceritinib-resistant cell line; type: cell-based; details: cell line resistant to ceritinib
[5] = tested on: cell line that has acquired resistance to crizotinib; experiment: Cell survival rate of cell line that has acquired resistance to crizotinib after ALK/EGFR inhibitor treatment; type: cell-based; details: crizotinib-resistant H3122 cell line
Procedure: Subsequently, studies on the mechanism of acquiring resistance to an ALK inhibitor in the Experimental Examples were carried out by representatively using CR pool, CR #1, and CR #3.

H3122 parental cells = experiment: FDA approved drug library growth inhibition selection, parental cells; type: cell-based; details: 1 μM for 72 hours
H3122 CR pool cells = experiment: FDA approved drug library growth inhibition selection, resistant cells; type: cell-based; details: 1 μM for 72 hours
EGFR = experiment: Western blot of EGFR activity after verteporfin; type: cell-based; details: cell line that has acquired resistance to an ALK inhibitor; pretreatment with verteporfin
Text: The results are illustrated in FIG. 12.

vimentin = experiment: Western blot of vimentin expression; type: cell-based; details: cell lines resistant to an ALK inhibitor
Text: The results are illustrated in FIG. 13.

[6] = added to cerivastatin-treated cells

In the case of `CC(C)=CCC/C(C)=C/CC/C(C)=C/COP(=O)(O)OP(=O)(O)O` [FPP, Farnesyl pyrophosphate], the “proliferation of cells suppressed by cerivastatin” value (“proliferation of cells suppressed” below) [1] is reported as “did not have any effect”.

For `CC(C)=CCC/C(C)=C/CC/C(C)=C/CC/C(C)=C/COP(=O)(O)OP(=O)(O)O` [GGPP, Geranylgeranyl pyrophosphate], the “proliferation of cells suppressed” value [1] was “restored”, the “phosphorylation of YAP” value (YAP; added together with cerivastatin) was “again reduced” and the “expression of cleaved PARP increased by cerivastatin” value [2, 6] was “again decreased”. For the same molecule, the “expression of cleaved caspase 3 increased by cerivastatin” value [2, 6] was “again decreased” and the “expression of p21 increased by cerivastatin” value [2, 6] was “again decreased”.

`COC(=O)[C@H](CC(C)C)NC(=O)c1ccc(NC[C@@H](N)CS)cc1-c1cccc2ccccc12` [GGTI-298] was tested, and the “expression of PARP” value [3] was “concentration-dependently induced”, the “expression of p21” value [3] was “concentration-dependently induced” and the “phosphorylation of YAP” value (YAP; western blot, agent alone) was “increasing”. The “expression of cleaved PARP” value ([2]; western blot, agent alone) was “concentration dependently induced”, the “expression of cleaved caspase 3” value ([2]; western blot, agent alone) was “concentration dependently induced” and the “expression of p21” value ([2]; western blot, agent alone) was “concentration dependently induced”.

`CC(C)c1c(C(=O)Nc2ccccc2)c(-c2ccccc2)c(-c2ccc(F)cc2)n1CC[C@@H](O)C[C@@H](O)CC(=O)O` [atorvastatin] was tested, and the antitumor efficacies [4] was “specifically exhibited antitumor efficacies against a cell line resistant to the ALK inhibitor”.

In the case of `Cc1cc(Nc2ncc(Cl)c(Nc3ccccc3S(=O)(=O)C(C)C)n2)c(OC(C)C)cc1C1CCNCC1` [ceritinib], the “activity of AKT” value (AKT and ERK) is reported as “not suppressed”, the “activity of ERK” value (AKT and ERK) is reported as “not suppressed” and the “proliferation of the cell line that had acquired resistance (cell survival rate)” value [5] is reported as “not suppressed”.

For `CC(=O)O[C@@]12CO[C@@H]1C[C@H](O)[C@@]1(C)C(=O)[C@H](O)C3=C(C)[C@@H](OC(=O)[C@H](O)[C@@H](NC(=O)OC(C)(C)C)c4ccccc4)C[C@@](O)([C@@H](OC(=O)c4ccccc4)[C@H]21)C3(C)C` [docetaxel], the growth of cells (H3122 parental cells) was “suppressed the growth” and the growth of cells (H3122 CR pool cells) was “suppressed the growth”.

With `COc1cccc2c1C(=O)c1c(O)c3c(c(O)c1C2=O)C[C@@](O)(C(=O)CO)C[C@@H]3O[C@H]1C[C@H](N)[C@H](O)[C@H](C)O1` [doxorubicin] the growth of cells (H3122 parental cells) was “suppressed the growth” and the growth of cells (H3122 CR pool cells) was “suppressed the growth”.

In the case of `CC(O)(CCO)CC(=O)O` (stereo not shown) [mevalonate], the “proliferation of cells suppressed” value [1] is reported as “restored”.

With `CC(C)c1nc(N(C)S(C)(=O)=O)nc(-c2ccc(F)cc2)c1/C=C/[C@@H](O)C[C@@H](O)CC(=O)O` [rosuvastatin] the antitumor efficacies [4] was “specifically exhibited antitumor efficacies against a cell line resistant to the ALK inhibitor”.

`CC(C)=CCC/C(C)=C/CC/C(C)=C/CC/C=C(\C)CC/C=C(\C)CCC=C(C)C` [squalene] was tested, and the “proliferation of cells suppressed” value [1] was “did not have any effect”.

With verteporfin the “activity of EGFR” value (EGFR) was “concentration-dependently suppressed” and the expression of vimentin (vimentin) was “clearly decreased”.

Reference: patent US10688085B2, “Use of statin-based drug for treatment of EML4-ALK-positive non-small cell lung cancer progressing on ALK inhibitor” (University-Industry Foundation, Yonsei University, priority 2016, dated 2020)
